In patent US9968619B2, “Method of treating triple-negative breast cancer using thienotriazolodiazepine compounds” (ONCOETHIX GMBH, priority 2014, dated 2018):

Experiments:
mTOR = mTOR (Homo sapiens, UniProt P42345); conditions: cited from earlier work
HCC1937 = conditions: cited from earlier work
MDA-MB-231 = conditions: cited from earlier work
[1] = system: MDA-MB-231 nude mice-derived xenografts; test: MDA-MB-231 xenografts in nude mice; format: in vivo; conditions: Compound (1-1) 50 mg/kg BID po; everolimus 2 mg/kg 3 time a week ip; 4 weeks treatment
Experimental: In vivo assays were performed in 8-week-old female MDA-MB-231 nude mice-derived xenografts. 10×10^6 cells were injected, when tumor volume reached 100 mm^3, mice were randomized to 4 groups (n=9): 1) vehicle; 2) 50 mg/kg Compound (1-1) (BID, po); 3) 2 mg/kg of everolimus (3 time a week, ip); 4) combination Compound (1-1) and everolimus; 4 weeks treatment.
Symbols with • indicate significant differences between treatment vs. vehicle-treated mice (p<0.05). * indicates a significant difference in the tumor mass between the combination treated animals and the two single agent groups (*p<0.05, **p<0.01 and ***p<0.001). Results represent the mean±SEM (during the treatment period, n=9). Variation of animal body weight during treatment is illustrated in FIG. 18B. […] The T/C ratio was 39% after 10 days of combination treatment, with an optimal value of 21% on day 23. Compound (1-1) can be used for the treatment of TNBC, either alone or in combination with mTOR inhibitors.

FKBP12 = FKBP12 (Homo sapiens, UniProt P62942); conditions: cited from earlier work
PI3K/mTOR = conditions: cited from earlier work
[2] = system: Akt phosphorylation on T308; conditions: cited from earlier work
[3] = system: Akt phosphorylation on S473; conditions: cited from earlier work
p110β (PI3Kβ) = p110β (PI3Kβ) (Homo sapiens, UniProt P42338); conditions: cited from earlier work
p110γ (PI3Kγ) = p110γ (PI3Kγ) (Homo sapiens, UniProt P48736); conditions: cited from earlier work
Sequence of p110γ (PI3Kγ) (P48736 whole entry, species assumed): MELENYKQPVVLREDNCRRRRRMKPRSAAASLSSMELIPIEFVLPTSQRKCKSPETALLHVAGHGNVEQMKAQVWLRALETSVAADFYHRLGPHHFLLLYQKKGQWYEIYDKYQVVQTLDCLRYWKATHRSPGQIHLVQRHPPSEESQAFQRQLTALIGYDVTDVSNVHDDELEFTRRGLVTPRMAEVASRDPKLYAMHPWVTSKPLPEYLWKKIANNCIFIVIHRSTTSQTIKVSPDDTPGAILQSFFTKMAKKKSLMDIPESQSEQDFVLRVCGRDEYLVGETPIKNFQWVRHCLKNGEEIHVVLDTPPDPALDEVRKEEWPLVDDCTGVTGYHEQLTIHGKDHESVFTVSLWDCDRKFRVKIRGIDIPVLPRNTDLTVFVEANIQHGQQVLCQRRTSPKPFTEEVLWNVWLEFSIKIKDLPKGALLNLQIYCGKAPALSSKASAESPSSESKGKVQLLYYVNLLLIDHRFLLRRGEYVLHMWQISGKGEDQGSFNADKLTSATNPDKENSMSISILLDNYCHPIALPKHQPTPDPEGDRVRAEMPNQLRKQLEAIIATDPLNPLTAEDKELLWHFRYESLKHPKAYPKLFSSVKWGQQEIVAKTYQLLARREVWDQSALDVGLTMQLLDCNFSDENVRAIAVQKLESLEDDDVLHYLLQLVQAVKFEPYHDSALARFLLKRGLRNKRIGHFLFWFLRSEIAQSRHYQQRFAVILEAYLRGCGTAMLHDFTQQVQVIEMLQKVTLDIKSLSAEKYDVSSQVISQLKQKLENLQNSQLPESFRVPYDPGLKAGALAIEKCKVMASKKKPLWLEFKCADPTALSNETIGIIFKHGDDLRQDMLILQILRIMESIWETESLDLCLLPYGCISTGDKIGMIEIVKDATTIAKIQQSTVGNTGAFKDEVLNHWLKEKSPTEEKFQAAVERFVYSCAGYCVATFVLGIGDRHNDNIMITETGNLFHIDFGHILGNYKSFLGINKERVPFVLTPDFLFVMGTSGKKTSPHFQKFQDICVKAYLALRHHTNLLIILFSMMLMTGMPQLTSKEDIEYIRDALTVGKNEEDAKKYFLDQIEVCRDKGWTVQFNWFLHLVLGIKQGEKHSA

Sequence of FKBP12 (P62942 whole entry, species assumed): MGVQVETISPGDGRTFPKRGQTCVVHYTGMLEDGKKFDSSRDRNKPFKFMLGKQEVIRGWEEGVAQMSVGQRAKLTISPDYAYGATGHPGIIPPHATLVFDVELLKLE
Sequence of p110β (PI3Kβ) (P42338 whole entry, species assumed): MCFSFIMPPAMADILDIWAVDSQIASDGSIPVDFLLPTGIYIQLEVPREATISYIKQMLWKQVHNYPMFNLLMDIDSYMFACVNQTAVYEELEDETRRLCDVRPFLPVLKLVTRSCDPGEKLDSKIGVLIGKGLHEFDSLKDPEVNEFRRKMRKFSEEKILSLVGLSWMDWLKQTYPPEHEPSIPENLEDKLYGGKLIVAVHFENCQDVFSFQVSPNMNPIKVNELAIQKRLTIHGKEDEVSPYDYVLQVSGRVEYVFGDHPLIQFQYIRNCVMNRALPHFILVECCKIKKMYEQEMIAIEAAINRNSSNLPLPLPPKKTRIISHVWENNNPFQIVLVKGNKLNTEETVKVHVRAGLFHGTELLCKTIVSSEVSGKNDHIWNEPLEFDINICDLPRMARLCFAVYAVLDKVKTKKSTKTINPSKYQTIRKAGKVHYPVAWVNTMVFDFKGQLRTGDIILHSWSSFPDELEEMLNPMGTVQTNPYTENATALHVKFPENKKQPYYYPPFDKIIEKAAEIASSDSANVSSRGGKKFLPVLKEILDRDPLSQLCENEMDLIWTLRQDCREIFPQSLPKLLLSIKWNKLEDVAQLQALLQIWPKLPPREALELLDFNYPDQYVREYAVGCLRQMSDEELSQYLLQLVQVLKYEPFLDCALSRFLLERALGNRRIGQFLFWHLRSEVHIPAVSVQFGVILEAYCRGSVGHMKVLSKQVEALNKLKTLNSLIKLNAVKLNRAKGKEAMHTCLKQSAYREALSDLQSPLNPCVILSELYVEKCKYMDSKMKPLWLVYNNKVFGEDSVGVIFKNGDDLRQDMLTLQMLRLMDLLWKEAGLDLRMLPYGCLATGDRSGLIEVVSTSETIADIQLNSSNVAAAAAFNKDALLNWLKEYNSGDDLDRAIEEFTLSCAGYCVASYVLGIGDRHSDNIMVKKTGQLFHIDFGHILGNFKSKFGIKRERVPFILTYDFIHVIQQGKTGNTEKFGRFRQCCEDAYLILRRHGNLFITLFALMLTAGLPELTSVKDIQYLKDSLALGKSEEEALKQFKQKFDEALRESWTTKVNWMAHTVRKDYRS
Sequence of p110β (PI3Kβ) (P27986 whole entry partner, species assumed): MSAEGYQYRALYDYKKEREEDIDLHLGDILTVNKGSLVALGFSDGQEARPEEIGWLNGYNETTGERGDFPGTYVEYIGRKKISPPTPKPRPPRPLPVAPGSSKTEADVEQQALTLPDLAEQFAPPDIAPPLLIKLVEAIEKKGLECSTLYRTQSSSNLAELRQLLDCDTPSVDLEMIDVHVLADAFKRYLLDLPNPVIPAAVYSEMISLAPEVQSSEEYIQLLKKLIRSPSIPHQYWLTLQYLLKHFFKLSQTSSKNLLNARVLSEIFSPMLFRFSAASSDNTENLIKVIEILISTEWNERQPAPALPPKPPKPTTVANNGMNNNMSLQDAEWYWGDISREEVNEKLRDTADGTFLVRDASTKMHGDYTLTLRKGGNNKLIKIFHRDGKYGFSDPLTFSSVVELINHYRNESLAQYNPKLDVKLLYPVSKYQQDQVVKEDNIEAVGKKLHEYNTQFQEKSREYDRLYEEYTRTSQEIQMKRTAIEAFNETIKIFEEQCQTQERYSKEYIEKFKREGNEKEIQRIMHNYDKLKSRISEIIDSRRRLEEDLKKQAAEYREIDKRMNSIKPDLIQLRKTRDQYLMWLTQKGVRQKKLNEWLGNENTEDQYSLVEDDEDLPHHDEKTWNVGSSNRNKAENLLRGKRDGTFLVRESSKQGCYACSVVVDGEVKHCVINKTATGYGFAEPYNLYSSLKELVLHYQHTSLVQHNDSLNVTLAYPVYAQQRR

**Q.** With CO[C@H]1CC2CC[C@@H](C)[C@@](O)(O2)C(=O)C(=O)N2CCCC[C@H]2C(=O)O[C@H]([C@H](C)C[C@@H]2CCC(OP(C)(C)=O)[C@H](OC)C2)CC(=O)[C@H](C)/C=C(\C)[C@@H](O)[C@@H](OC)C(=O)[C@H](C)C[C@H](C)/C=C/C=C/C=C/1C (some centres unmarked) [Deforolimus, 42-(Dimethylphosphinate) rapamycin] as the compound, how does the IC50 (mTOR) read?
**A.** Its IC50 is 0.2 nM.

**Q.** Which IC50 (HCC1937) does the source give for CC(=O)O[C@@]12CO[C@@H]1C[C@H](O)[C@@]1(C)C(=O)[C@H](O)C3=C(C)[C@@H](OC(=O)[C@H](O)[C@@H](NC(=O)OC(C)(C)C)c4ccccc4)C[C@@](O)([C@@H](OC(=O)c4ccccc4)[C@H]21)C3(C)C [Docetaxel] here?
**A.** The IC50 was 7.2 nM.

**Q.** What about the IC50 (MDA-MB-231) of the same compound?
**A.** The IC50 was 3 nM.

**Q.** For CO[C@H]1C[C@@H]2CC[C@@H](C)[C@@](O)(O2)C(=O)C(=O)N2CCCC[C@H]2C(=O)O[C@H]([C@H](C)C[C@@H]2CC[C@@H](OCCO)[C@H](OC)C2)CC(=O)[C@H](C)/C=C(\C)[C@@H](O)[C@@H](OC)C(=O)[C@H](C)C[C@H](C)/C=C/C=C/C=C/1C [Everolimus, reference compound], which “tumor mass with respect to vehicle-treated mice” value [1] is on record?
**A.** Its value is “not active”.

**Q.** And the IC50 (FKBP12)?
**A.** The IC50 was 1.6 to 2.4 nM.

**Q.** With COc1ccc(-c2ccc3ncc4c(c3c2)n(-c2ccc(N3CCNCC3)c(C(F)(F)F)c2)c(=O)n4C)cn1 [NVP-BGT226] as the compound, how does the IC50 (PI3K/mTOR) read?
**A.** The IC50 was 1 nM.

**Q.** Which results are given for COc1ccc(-c2cc3c(C)nc(N)nc3n([C@H]3CC[C@H](OCCO)CC3)c2=O)cn1 [PF-04691502]?
**A.** IC50 [2]: 7.5 nM; IC50 [3]: 3.8 nM

**Q.** Which IC50 (mTOR) does the source give for COc1cc(Nc2nc3ccccc3nc2NS(=O)(=O)c2ccc(NC(=O)c3ccc(C)c(OC)c3)cc2)cc(OC)c1 [XL765] here?
**A.** The IC50 was 157 nM.

**Q.** For GSK2126458, which Ki (p110β (PI3Kβ)) is on record?
**A.** The Ki was 0.13 nM.

**Q.** And the Ki (p110γ (PI3Kγ))?
**A.** Its Ki is 0.024 nM.
